Data from ChEMBL document CHEMBL1154382, “Preliminary SAR analysis of novel antiproliferative N(6),5'-bis-ureidoadenosine derivatives” (2009).

How the values were obtained:
Assay type in all cases: functional
[1] = test system: HCT-15; assay: Antiproliferative activity against human HCT15 cells
[2] = test system: SK-MEL-5; assay: Antiproliferative activity against human SK-MEL-5 cells
[3] = test system: BT-549; assay: Antiproliferative activity against human BT549 cells
[4] = test system: OVCAR-4; assay: Antiproliferative activity against human OVCAR4 cells
[5] = test system: COLO 205; assay: Antiproliferative activity against human COLO205 cells
[6] = test system: UO-31; assay: Antiproliferative activity against human UO31 cells
[7] = test system: SR; assay: Antiproliferative activity against human SR cells
[8] = test system: UACC-62; assay: Antiproliferative activity against human UACC62 cells
[9] = test system: A549; assay: Antiproliferative activity against human A549 cells
[10] = test system: NCI-H23; assay: Antiproliferative activity against human NCI-H23 cells
[11] = Antiproliferative activity against human Hs 578T cells
[12] = test system: MDA-MB-435; assay: Antiproliferative activity against human MDA-MB-435 cells
[13] = test system: UACC-257; assay: Antiproliferative activity against human UACC257 cells
[14] = test system: OVCAR-8; assay: Antiproliferative activity against human OVCAR8 cells
[15] = test system: SN12C; assay: Antiproliferative activity against human SN12C cells
[16] = test system: A498; assay: Antiproliferative activity against human A498 cells
[17] = test system: K562; assay: Antiproliferative activity against human K562 cells
[18] = test system: HOP-92; assay: Antiproliferative activity against human HOP92 cells
[19] = test system: KM12; assay: Antiproliferative activity against human KM12 cells
[20] = test system: SW-620; assay: Antiproliferative activity against human SW620 cells
[21] = test system: IGROV-1; assay: Antiproliferative activity against human IGROV1 cells
[22] = test system: SF-539; assay: Antiproliferative activity against human SF539 cells
[23] = test system: DU-145; assay: Antiproliferative activity against human DU145 cells
[24] = test system: CCRF-CEM; assay: Antiproliferative activity against human CCRF-CEM cells
[25] = test system: TK-10; assay: Antiproliferative activity against human TK10 cells
[26] = test system: HCT-116; assay: Antiproliferative activity against human HCT116 cells
[27] = test system: T47D; assay: Antiproliferative activity against human T47D cells
[28] = test system: HT-29; assay: Antiproliferative activity against human HT-29 cells
[29] = test system: HCC 2998; assay: Antiproliferative activity against human HCC2998 cells
[30] = test system: NCI-H226; assay: Antiproliferative activity against human NCI-H226 cells
[31] = test system: ACHN; assay: Antiproliferative activity against human ACHN cells
[32] = test system: MOLT-4; assay: Antiproliferative activity against human MOLT4 cells
[33] = test system: SK-MEL-2; assay: Antiproliferative activity against human SK-MEL-2 cells
[34] = Antiproliferative activity against human […] cells
[35] = test system: SNB-19; assay: Antiproliferative activity against human SNB19 cells
[36] = test system: RXF 393; assay: Antiproliferative activity against human RXF393 cells
[37] = test system: SF-268; assay: Antiproliferative activity against human SF268 cells
[38] = test system: SF-295; assay: Antiproliferative activity against human SF295 cells
[39] = test system: OVCAR-5; assay: Antiproliferative activity against human OVCAR5 cells
[40] = test system: HL-60(TB); assay: Antiproliferative activity against human HL-60(TB) cells
[41] = test system: SNB-75; assay: Antiproliferative activity against human SNB75 cells
[42] = test system: SK-MEL-28; assay: Antiproliferative activity against human SK-MEL-28 cells
[43] = test system: U-251; assay: Antiproliferative activity against human U251 cells
[44] = test system: MCF7; assay: Antiproliferative activity against human MCF7 cells
[45] = test system: NCI-H522; assay: Antiproliferative activity against human NCI-H522 cells
[46] = test system: Malme-3M; assay: Antiproliferative activity against human MALME-3M cells
[47] = test system: HOP-62; assay: Antiproliferative activity against human HOP62 cells
[48] = test system: SK-OV-3; assay: Antiproliferative activity against human SKOV3 cells
[49] = test system: OVCAR-3; assay: Antiproliferative activity against human OVCAR-3 cells
[50] = test system: EKVX; assay: Antiproliferative activity against human EKVX cells
[51] = test system: CAKI-1; assay: Antiproliferative activity against human Caki1 cells
[52] = test system: NCI-H322M; assay: Antiproliferative activity against human NCI-H322M cells
[53] = test system: MDA-MB-231; assay: Antiproliferative activity against human MDA-MB-231 cells
[54] = test system: 786-0; assay: Antiproliferative activity against human 786-0 cells
[55] = test system: LOX IMVI; assay: Antiproliferative activity against human LOXIMVI cells
[56] = test system: M14; assay: Antiproliferative activity against human M14 cells
[57] = test system: NCI-H460; assay: Antiproliferative activity against human NCI-H460 cells

With `CNC(=O)NC[C@H]1O[C@@H](n2cnc3c(NC(=O)Nc4ccccc4)ncnc32)[C@H](O[Si](C)(C)C(C)(C)C)[C@@H]1CC(=O)N(C)OC` the GI50 [1] was 6.47 µM, the GI50 [2] was 5.81 µM and the GI50 [3] was 29 µM. The GI50 [4] was 53 µM, the GI50 [5] was 12.3 µM and the GI50 [6] was 7.79 µM. For the same compound, the GI50 [7] was 1.27 µM, the GI50 [8] was 41.9 µM and the GI50 [9] was 9.35 µM. For the same compound, the GI50 [10] was 57.2 µM, the GI50 [11] was 5.79 µM and the GI50 [12] was 10.9 µM. The GI50 [13] was 22.6 µM, the GI50 [14] was 9.02 µM and the GI50 [15] was 85.3 µM. The GI50 [16] was 3.87 µM, the GI50 [17] was 3.12 µM and the GI50 [18] was 2.71 µM. It also gave a GI50 [19] of 23.9 µM, a GI50 [20] greater than 100 µM and a GI50 [21] of 3.72 µM. The GI50 [22] was 22.3 µM, the GI50 [23] was 16.6 µM and the GI50 [24] was 6.37 µM. It also gave a GI50 [25] of 20.5 µM, a GI50 [26] of 4.2 µM and a GI50 [27] of 13.9 µM. The GI50 [28] was 5.37 µM, the GI50 [29] was 30.6 µM and the GI50 [30] was 41.9 µM. It also gave a GI50 [31] of 14.4 µM, a GI50 [32] of 2.23 µM and a GI50 [33] of 14.9 µM. For the same compound, the GI50 [34] was 1.58 µM, the GI50 [35] was greater than 100 µM and the GI50 [36] was 9.74 µM. It also gave a GI50 [37] of 8.29 µM, a GI50 [38] of 9.09 µM and a GI50 [39] of 38.2 µM. It also gave a GI50 [40] of 0.00181 µM, a GI50 [41] of 12.7 µM and a GI50 [42] of 7.77 µM. For the same compound, the GI50 [43] was 5.66 µM, the GI50 [44] was 5.59 µM and the GI50 [45] was 11.1 µM. For the same compound, the GI50 [46] was 11.4 µM, the GI50 [47] was 24.9 µM and the GI50 [48] was 52.7 µM. For the same compound, the GI50 [49] was 7.11 µM, the GI50 [50] was 26.4 µM and the GI50 [51] was 53.8 µM. The GI50 [52] was greater than 100 µM, the GI50 [53] was 12.3 µM and the GI50 [54] was 9.01 µM. For the same compound, the GI50 [55] was 7.3 µM, the GI50 [56] was 15.2 µM and the GI50 [57] was 7.49 µM.
